{"source": "patent US10729768B2", "about": "“Combination of anti-CD20 antibody and PI3 kinase selective inhibitor” (TG Therapeutics, Inc., priority 2012, dated 2020)", "key": {"CD20+ cells": {"system": "CD20+ cells", "assay": "LPS-induced proliferation in HWB, flow cytometry, CD20", "type": "cell-based", "settings": "Homo sapiens, 72 hrs", "experimental": "In these experiments, 250 μl of diluted (1:3.5 with RPMI-HG Media) HWB sample was treated with either S-isomer of a compound of formula A (10 μM to 0.1 μM), UBX (100 μg/ml to 0.1 μg/ml) or UBX with S-isomer of a compound of formula A at 1000 nM for 15 minutes followed by 20 μg/ml LPS induction and incubated for 72 hrs at 37° C. and 5% CO2. 20 μl of treated sample was taken in a 1.5 ml centrifuge tube and labeled with CD20 FITC and CD19 PE antibody and incubated in the dark for 1 hour at RT. 1 ml of RBC lysing solution was added and tubes were centrifuged at 3000 rpm for 10 minutes. Supernatant was aspirated, and 250 μl of PBS was added to the pellet. Tubes were vortexed, and 5000 events were acquired on a Guava® easyCyte™ flow cytometer and analyzed with Incyte Software.\nGated population of lymphocytes positive cells were further analyzed for CD19 and CD20. Cells positive for CD19 and/or CD20 were calculated, and data were expressed as the percentage positive cells in the population. The loss of positive population from control with LPS induction was calculated and expressed as % inhibition with respect to control."}, "[1]": {"system": "U266B1, DB, Raji, and Daudi cells", "assay": "cell cycle assay, flow cytometry, cell-lines tested", "type": "cell-based", "settings": "72 hrs", "method": "A cell cycle assay reagent (Millipore) was used to determine the effect of S-isomer of a compound of formula A, UBX, and combinations thereof on the cell cycle in cancerous cells. In these experiments, cells were plated in a 6-well plate at a concentration of 0.5×10^6 cells/ml, treated with either S-isomer of a compound of formula A (10 μM to 0.1 μM), UBX (100 μg/ml to 0.1 μg/ml), or UBX with S-isomer of a compound of formula A at 1000 nM, and incubated for 72 hrs at 37° C. and 5% CO2. The cells were transferred to microfuge tubes to receive 50 μl of cell cycle reagent and incubated for 30 minutes at RT away from light. Cells were then diluted with 300-400 μl PBS, and a minimum of 10,000 events were acquired on a Guava® easyCyte™ flow cytometer. The data was analyzed with Express Pro software and the percentage of the cell population in different cell cycle stages with respect to control was presented in histograms."}}}
{"smiles": "CC(C)Oc1ccc(-c2nn([C@@H](C)c3oc4ccc(F)cc4c(=O)c3-c3cccc(F)c3)c3ncnc(N)c23)cc1F", "note": "[S-isomer, (S)-2-(1-(4-amino-3-(3-fluoro-4-isopropoxyphenyl)-1H-pyrazolo[3,4-d]pyrimidin-1-yl)ethyl)-6-fluoro-3-(3-fluorophenyl)-4H-chromen-4-one]", "values": [{"measurement": "inhibition at 1 µM", "setting": "CD20+ cells", "result": "~40", "unit": "%"}, {"measurement": "cell cycle effect", "setting": "[1]", "result": "dose-dependent G2/M arrest"}]}
